# Laboratory results taken from patent US4935440A, “3-[ω-(3,5-Di-t-butyl-4-hydroxyphenyl)alkyl]pyrroles, and anti-inflammatory uses thereof” (Syntex (U.S.A.) Inc., priority 1989, dated 1990).
# Several values for one entry are separate records, joined by “and”; a condition that tells them apart may be missing. Equal entries are not always repeated.
# Columns and labels:
# mice = experiment: Arachidonic Acid-Induced Mouse Ear Edema Assay "AAI"; assay type: in vivo; settings: topical in acetone
# Description: Topical anti-inflammatory activity is determined by the Arachidonic Acid-Induced Mouse Ear Edema "AAI" Assay, as is well accepted in the art. A modification of the assay described by Young, et al., supra., is performed as follows:
# The test materials are prepared as solutions in acetone and applied to the right ears of mice, in groups of eight (8), at hour 0. At hour 1, 2 mg of arachidonic acid in acetone solution is applied to the right ears of the mice to induce an inflammatory response. The left ears of these animals serves as negative controls. At hour 2 the mice are sacrificed; their ears are removed and 8 mm diameter full thickness plugs are cut from the tip of each ear. The plugs are weighed and the mean right and left plug weights are calculated for each group. The results are expressed as percent inhibition of ear plug weight increase relative to a positive control group receiving only acetone at hour 0.
# [1] = as reported by Isomura, et al., Chem. Pharm. Bull., 32(1): 152-165 (1984); cited from earlier work
# Female Hla:(SD) BR rats = experiment: Adjuvant-Induced Arthritis Assay "AI"; assay type: in vivo, rat; settings: oral, day 18, vs control animals
# Description: Anti-inflammatory activity is determined by the Adjuvant-Induced Arthritis ("AI") Assay, as is well accepted in the art. A modification of the assay described by Pearson, et al., supra., is performed as follows:
# Female Hla:(SD) BR rats weighting 160-180 g are randomly distributed to treatment groups of 12 animals, and given food and water ad libitum. Test materials are prepared fresh weekly as suspensions in carboxymethyl cellulose. The test animals are orally dosed with the suspensions in volumes of 1 ml twice per day Monday through Friday, and with 2 ml once per day on Saturdays and Sundays. […] At time 0, rats are injected intradermally in the proximal quarter of the tail with 0.1 ml of a mineral oil suspension of heat-killed Mycobacterium butyricum (Difco) at a concentration of 10 mg/ml. On day 18 the intensity of swelling in the four paws and tail is estimated visually and scored (0-4 for paws, 0-3 for tail) such that the total maximum score, indicating intense swelling of all four paws and tail, is 19. The animals are then sacrificed; the hind paws of each animal are removed and weighed. The percent inhibition is calculated by comparing the weight increase of the hind paws of the test animals versus the control animals.
# The "AI" assay, as described in Example 29, was performed using 3-(3,5-di-t-butyl-4-hydroxybenzoyl)pyrrole (prepared according to Example 2) as the test material.
Structure (SMILES),Inhibition (AAI) of ear plug weight increase (mice; dose 2.0 mg/ear),anti-inflammatory activity [1],inhibition of hind paw weight increase (Female Hla:(SD) BR rats; daily dose 0.4 mg/kg of body weight) [%],inhibition of hind paw weight increase (Female Hla:(SD) BR rats; daily dose 2.0 mg/kg of body weight) [%],Inhibition (AAI) of ear plug weight increase (mice; dose 0.5 mg/ear) [%],Inhibition (AAI) of ear plug weight increase (mice; dose 1.0 mg/ear) [%]
"CC(C)(C)c1cc(C(=O)c2ccc[nH]2)cc(C(C)(C)C)c1O [B, 2-(3,5-di-t-butyl-4-hydroxybenzoyl)pyrrole, reference compound]",22%,,,,,
Cc1[nH]ccc1-c1cc(C(C)(C)C)c(O)c(C(C)(C)C)c1 [Formula VIII],,inactive,,,,
"CC(C)(C)c1cc(C(=O)c2cc[nH]c2)cc(C(C)(C)C)c1O [A, 3-(3,5-di-t-butyl-4-hydroxybenzoyl)pyrrole]",67% and 69%,,54,70,49,62
